{
  "source": "patent US9538754B2",
  "about": "“Combinations of pyrimethanil and monoterpenes” (Janssen Pharmaceutica NV, priority 2010, dated 2017)",
  "experiment_in_all_cases": "Poison Plate Assay",
  "type_in_all_cases": "cell-based",
  "key": {"[1]": {"test_system": "Chaetomium globosum CEB1218.2", "conditions": "CEB1218.2, 336 h, pyrimethanil (I) with thymol (II-a), ppm total active ingredient, Glucose Agar, 27° C., growth evaluated after two weeks, read-out: MIC-values (minimum inhibitory concentration) in ppm", "description": "(§1) • Name of component (I): pyrimethanil • Name of component (II): thymol (II-a) • β-thujaplicin (II-b) • Test models: Fungi: to each well of a 24-well microliter plate, 1000 μl of Glucose Agar (GA: 10 g glucose, 1.5 g K2HPO4, 2 g KH2PO4, 1 g (NH4)2SO4, 0.5 g MgSO4 and 12.5 g agar in 1 liter deionised water) containing the appropriate combination of the test compounds in one of the concentrations of a dose series is added. The nutrient medium is inoculated with the test fungi by adding a sporeimycelium suspension (10 μl) or a small piece of agar from the margin of an actively growing colony and incubated under dark at 27° C. with 70% relative humidity. […] In addition to this dose series, pyrimethanil single was also tested at 9.50-7.13-5.34-4.01-3.01-2.25-1.69-1.27-0.95-0.71-0.53-0.40 ppm in order to define a lower limit to its activity.\n(§2) A. G. Nass (1957) “Some aspects of the notions additivity, synergism and antagonism in the simultaneous activity of two antibacterial agents in vitro” Arch. intern. Pharmaco-dynamie 109: 211-228; Steinberg, D. C. (2000) “Measuring synergy” cosmetics & Toiletries 115(11): 59-62; and Lada, A., A. N. Petrocci, H. A. Green, and J. J. Merianos (1977) “Antimicrobial composition” U.S. Pat. No. 4,061,750, 3 pp.):\n(§3) [formula] wherein: • QA is the concentration of compound A in ppm, acting alone, which produced an end point (e.g. MIC), • Qa is the concentration of compound A in ppm, in the mixture, which produced an end point (e.g. MIC), • QB is the concentration of compound B in ppm, acting alone, which produced an end point (e.g. MIC), • Qb is the concentration of compound B in ppm, in the mixture, which produced an end point (e.g. MIC). When the Synergy Index is greater than 1.0, antagonism is indicated. When the SI is equal to 1.0, additivity is indicated."}, "[2]": {"test_system": "Stachybotrys atra CBS328.37", "conditions": "CBS328, 336 h, pyrimethanil (I) with thymol (II-a), ppm total active ingredient, Glucose Agar, 27° C., growth evaluated after two weeks, read-out: MIC-values (minimum inhibitory concentration) in ppm", "description": "as §1, §2, §3"}, "[3]": {"test_system": "Ulocladium atrum IMI 214669a", "conditions": "Alternaria atra, IMI214669A, 336 h, pyrimethanil (I) with β-thujaplicin (II-b), ppm total active ingredient, Glucose Agar, 27° C., growth evaluated after two weeks, read-out: MIC-values (minimum inhibitory concentration) in ppm", "description": "as §1, §2, §3"}},
  "data": [
    {"smiles": "Cc1cc(C)nc(Nc2ccccc2)n1", "note": "[component (I), 4,6-dimethyl-N-phenyl-2-pyrimidinamine]", "values": [
      {"measurement": "MIC", "setting": "[1]", "result": 400, "unit": "µg/mL"},
      {"measurement": "MIC", "setting": "[2]", "result": 127, "unit": "µg/mL"},
      {"measurement": "MIC", "setting": "[3]", "result": 23, "unit": "µg/mL"}
    ]}
  ]
}
